{"source": "patent US20260133203A1", "about": "“DETECTION OF FUMARATE-DERIVED MODIFICATION IN A TEST SAMPLE” (UNIVERSITY OF SOUTH CAROLINA, priority 2017, published 2026)", "tested_on": "N1E-115 neurons", "experiment": "LC-MS/MS identification of succinated proteins in N1E-115 neurons", "assay_type": "cell-based, mouse", "conditions": "DMF-treated N1E-115 neurons", "method": "N1E-115 cells (subclone N1E-115-1 neuroblastoma cells) were obtained from Sigma (08062511, St. Louis, MO). The cells were grown and expanded in non-differentiation medium (NDM): 90% DMEM (GibcoTM, Grand Island, NY) with 25 mM glucose, no pyruvate, 25 mM HEPES, 4 mM glutamine and 10% fetal bovine serum (FBS, Atlanta Biologicals, Atlanta, GA). At 80% confluence, the cells were differentiated into neurons in the presence of 2% FBS and 1.25% dimethyl sulfoxide in DMEM for 5 days. In addition to the assessment of the neuronal phenotype by light microscopy, the detection of synaptophysin protein levels was used to confirm successful differentiation. […] After gel extraction, the peptides were re-suspended in 1% acetic acid and analyzed on a DionexTM […] system (Thermo ScientificTM, Rockford, IL) coupled to an Orbitrap Velos ProTM mass spectrometer (Thermo ScientificTM, Rockford, IL). […] The data-dependent acquisition (DDA) data were analyzed using Proteome DiscovererTM 1.4 software with SEQUEST search engine against the uniprot_ref_mouse database (2014-10-03 version, 52,474 proteins) or uniprot_ref_rat database (2011-5-11 version, 39765 proteins) with Xcorr>1 validation (+2) and an allowance for 2 missed cleavages. […]", "note": "Structures can show the parent of a compound that is named as a salt.", "data": [{"smiles": "COC(=O)/C=C/C(=O)OC", "note": "[DMF, dimethyl fumarate]", "values": [{"measurement": "number of protein subunits modified by either DMF or MMF", "value": 15}]}]}
